Source: patent US7022737B2, “Manipulating nitrosative stress to kill pathologic microbes, pathologic helminths and pathologically proliferating cells or to upregulate nitrosative stress defenses” (Duke University, priority 1996, dated 2006)

Tests used:
[1] = tested on: herpes labialis; experiment: Patient with recurrent herpes labialis; format: in vivo; details: in Denavir (pencicyclovir cream), topically every two hours while awake
Source text: A homosexually active person developed a recurrent herpes labialis (cold sore) on their lips and face. Therapy with Denavir (pencicyclovir cream) that contains buthionine sulfoximine is applied topically every two hours while awake.

[2] = target: T1, gamma-glutamylcysteinyl synthetase (gamma-GCS) (Rattus norvegicus, UniProt P19468); details: mammalian systems, literature; cited from earlier work
T1 sequence (P19468 1-637): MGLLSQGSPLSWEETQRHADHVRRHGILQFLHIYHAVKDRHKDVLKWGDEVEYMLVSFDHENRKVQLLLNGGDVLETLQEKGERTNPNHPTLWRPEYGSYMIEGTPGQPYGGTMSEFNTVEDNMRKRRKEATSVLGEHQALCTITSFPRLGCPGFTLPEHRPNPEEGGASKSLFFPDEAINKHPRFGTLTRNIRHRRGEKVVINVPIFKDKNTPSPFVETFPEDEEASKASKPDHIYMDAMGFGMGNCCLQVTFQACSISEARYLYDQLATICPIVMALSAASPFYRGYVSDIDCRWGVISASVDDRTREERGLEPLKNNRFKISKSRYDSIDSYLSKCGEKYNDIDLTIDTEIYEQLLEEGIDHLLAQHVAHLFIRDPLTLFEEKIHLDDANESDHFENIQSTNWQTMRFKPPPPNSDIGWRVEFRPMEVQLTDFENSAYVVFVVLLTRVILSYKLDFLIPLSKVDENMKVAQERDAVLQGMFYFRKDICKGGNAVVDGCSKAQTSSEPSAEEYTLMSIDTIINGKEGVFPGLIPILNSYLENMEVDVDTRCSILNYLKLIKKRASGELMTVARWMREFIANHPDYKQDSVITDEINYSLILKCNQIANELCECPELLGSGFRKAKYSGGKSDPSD
T1 sequence (P48508 1-274 partner): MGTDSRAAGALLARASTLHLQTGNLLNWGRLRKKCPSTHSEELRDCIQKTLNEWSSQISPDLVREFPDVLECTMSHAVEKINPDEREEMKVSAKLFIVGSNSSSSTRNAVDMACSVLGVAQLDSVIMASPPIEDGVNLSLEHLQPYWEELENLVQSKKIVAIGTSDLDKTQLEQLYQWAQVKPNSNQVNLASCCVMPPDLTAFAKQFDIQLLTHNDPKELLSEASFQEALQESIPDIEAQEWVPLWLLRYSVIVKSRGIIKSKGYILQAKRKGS

[3] = tested on: Giardia lamblia; experiment: Patient with Giardia lamblia infection; format: in vivo; details: 4 mmol/kg four times a day p.o. with metronidazole 500 mg twice a day p.o. for five days
[4] = tested on: benign prostatic hypertrophy; experiment: Patients with benign prostatic hypertrophy; format: in vivo
Source text: A person presents with a history of urinary hesitancy and multiple awakenings during the night. They are given a diagnosis of benign prostatic hypertrophy. Under stereotactic guidance, the patient's enlarged prostate gland is implanted with several porus polymer pellets designed to slowly release L-buthionine-S-sulfoximine (1 μmol/hr) and S-nitrosocysteine (1 μmol/hr). […] They then have nearly normal urine flow and usually wakes no more than once per night.
A similar patient with benign prostatic hypertrophy and very marked enlargement of their prostate is treated with NO-substituted finasteride (NO-substituted Proscar; 5 mg/day). NO-substitution is accomplished by replacement of the tert-butyl amine moiety of finasteride with S-nitroso-β-thio-tert-butyl amine.
A person with benign prostatic hypertrophy is treated with Finisteride (Proscar: 5 mg/day) and oral buthionine-S-sulfoximine at a dose of 10 mmol/kg four time/day.

[5] = tested on: metastatic malignant melanoma; experiment: Patient with metastatic malignant melanoma; format: in vivo; details: L-buthionine-S-sulfoximine 2 mmol/kg p.o. every 4 hours and hydroxyurea 10 mg/kg p.o., one week
Description: A person […] and a history of surgery five years previously to remove malignant melanotic nevi from their upper back and chest is found to have blood in their stool on routine physical examination. […] The patient is administered L-buthionine-S-sulfoximine (2 mmol/kg) p.o. every 4 hours for one week and is given 10 mg/kg of hydroxyurea p.o. 1 hour after every third dose of L-buthionine-S-sulfoximine. […] The patient shown no further evidence of metastases during a six month follow-up.

For `CCCCS(=N)(=O)CC[C@H](N)C(=O)O` (stereo partly drawn) [L-buthionine-S-sulfoximine], the “mean duration of the lesion versus Denavir without BSO” value [1] is listed as “half the time shorter”, the “inhibition of gamma-GCS” value [2] is listed as “most effectively inhibited” and the clinical outcome [3] is listed as “stool culture becomes negative for Giardia after five days”. For the same compound, the clinical outcome ([4]; Finisteride 5 mg/day and oral buthionine-S-sulfoximine 10 mmol/kg four time/day) was “symptoms of hesitancy improve significantly over two months”, the clinical outcome ([4]; prostate-implanted polymer pellets releasing each agent at 1 μmol/hr) was “symptoms improve over a period of three weeks” and the “reduction in size of metastatic tumor” value [5] was 30%.
